Experimental data taken from US20040180925A1, “Dipeptidylpeptidase-IV inhibitor” (priority 2000, published 2004).
Counter-ions that a name gives are not always drawn.

Assays:
DPP-IV = biological target: T1, DPP-IV (Rattus norvegicus, UniProt P14740); assay: Test for inhibitory action against DPP-IV (rat serum, Gly-Pro-AMC fluorescence); type: biochemical; details: Gly-Pro-AMC 50 μmol/L, pH 7.8, room temperature 20 minutes
T1 construct: The coagulated blood was centrifuged at 3,000 rpm for 20 minutes to separate serum for use in the experiment; from tissue; host or cells: rat serum (blood from the crural aorta, coagulated and centrifuged)
T1 sequence (P14740 37-767 limits assumed): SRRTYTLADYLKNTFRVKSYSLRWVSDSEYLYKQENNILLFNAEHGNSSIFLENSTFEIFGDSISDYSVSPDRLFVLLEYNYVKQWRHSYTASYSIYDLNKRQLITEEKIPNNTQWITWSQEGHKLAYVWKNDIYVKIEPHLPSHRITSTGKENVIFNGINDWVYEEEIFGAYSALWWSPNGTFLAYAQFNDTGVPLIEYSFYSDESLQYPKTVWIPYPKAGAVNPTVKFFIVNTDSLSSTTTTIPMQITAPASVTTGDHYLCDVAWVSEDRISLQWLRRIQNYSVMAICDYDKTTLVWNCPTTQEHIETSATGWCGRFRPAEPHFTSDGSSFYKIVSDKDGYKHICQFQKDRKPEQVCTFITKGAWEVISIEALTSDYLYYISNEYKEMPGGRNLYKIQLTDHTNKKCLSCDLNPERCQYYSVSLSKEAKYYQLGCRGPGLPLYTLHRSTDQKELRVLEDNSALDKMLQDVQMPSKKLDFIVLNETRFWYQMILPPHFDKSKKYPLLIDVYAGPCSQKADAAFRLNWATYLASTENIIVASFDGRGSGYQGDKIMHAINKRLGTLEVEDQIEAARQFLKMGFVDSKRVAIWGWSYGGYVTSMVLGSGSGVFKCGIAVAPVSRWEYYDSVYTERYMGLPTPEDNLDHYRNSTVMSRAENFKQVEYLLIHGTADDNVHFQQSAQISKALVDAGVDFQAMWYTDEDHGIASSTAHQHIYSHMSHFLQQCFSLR
Procedure: Under mild anesthesia with diethylether, a rat was incised at lower left side of the limb, and the crural aorta was cut and blood was collected. The collected blood was immediately ice-cooled. The coagulated blood was centrifuged at 3,000 rpm for 20 minutes to separate serum for use in the experiment. As reaction buffer, an aqueous solution containing HEPES (final concentration of 25 mmol/L) and sodium chloride (final concentration of 140 mmol/L) was prepared so as to give a final pH of 7.8, and used after addition of BSA (final concentration of 1%). An assay was conducted using a black, flat-bottomed 96 well plate. A test sample (2 μL) was added to each well, and the sample was added with rat serum (25 u L) and reaction buffer (25 u L) containing magnesium chloride (80 mmol/L), and the mixture was left stand at room temperature for 5 minutes. Then, a reaction was initiated by the addition of 50 u L of a solution of Gly-Pro-AMC (AMC: 7-amino-4-methylcoumarin) (final concentration of 50 μmol/L) to each well, and the mixture was left stand in the dark at room temperature for 20 minutes. AMC, which was released by DPP-IV activity, was quantified by measurement of fluorescence at 460 nm which was excited at 390 nm. DPP-IV activity was calculated according to the following equation:
Inhibitory activity against DPP-IV=100×{1−(Fs−F0)/(F100−F0)}
F100: Fluorescence intensity of AMC with addition of serum
F0: Fluorescence intensity of AMC without addition of serum
Fs: Fluorescence intensity of AMC with addition of a sample and serum

Wistar male rats [1] = assay: Suppressing effect on increase of blood sugar after oral glucose loading (Test Example 2); type: in vivo, rat; details: Wistar male rats fasted 24 hours, 30 mg/kg po
Procedure: Blood-sugar levels of Wistar male rats (9-week old, Charles river) fasted for 24 hours were measured. A test compound was orally administered to the rats in a dose of […], and then immediately glucose (2 g/kg) was orally administered to the rats. After 30 minutes from the glucose loading, blood-sugar levels were further measured to evaluate suppressing effects of test compounds on increase of blood sugar. The blood-sugar levels were measured by a portable apparatus for measurement of blood sugar [Blood glucose meter, Dexter-Z (Bayer. Sankyo, Tokyo)]. The test compounds were dissolved in 0.5% methylcellulose 400 for administration. The results are shown in Table 3 (** indicates p<0.01 in Student's t-test).

Wistar male rats [2] = assay: Suppressing effect on increase of blood sugar after oral glucose loading (Test Example 3, glucose oxidase method); type: in vivo, rat; details: Wistar male rats fasted 24 hours, 1 mg/kg po; for Blood-sugar level, 0 minute: 0 minute (before glucose loading); for Blood-sugar level, 30 minutes after glucose loading: glucose 2 g/kg po
Procedure: Blood-sugar levels of Wistar male rats (10-week old, Charles river) fasted for 24 hours were measured. A test compound was orally administered to the rats in a dose of 1 mg/kg, and then immediately glucose (2 g/kg) was orally administered to the rats. After 30 minutes from the glucose loading, blood-sugar levels were further measured to evaluate suppressing effects of test compounds on increase of blood sugar. The sugar levels were measured by the glucose oxidase method [Clin. Chem., 6, 466 (1960); J. Clin. Path., 22, 246 (1969); Clin. Chem. Acta, 40, 115 (1972); Clin. Chem., 20, 606 (1974) or the like]. The test compounds were dissolved in 0.5% methylcellulose 400 for administration.

Row | IC50 (DPP-IV) | SMILES | other results
1 | 31 nM | N#C[C@@H]1CCCN1C(=O)CNCCNc1cnccn1 [Compound 101, (S)-1-[2-(2-Pyrazinylamino)ethylamino]acetyl-2-pyrrolidinecarbonitrile dimethanesulfonate] | blood sugar level, 0 minute (Wistar male rats [1]; 0 minute (before glucose loading)): 68 ± 2 mg/dL; blood sugar level, 30 minutes after glucose loading (Wistar male rats [1]; glucose 2 g/kg po, 30 minutes, ** p<0.01 Student's t-test): 104 ± 4** mg/dL
2 | 61 nM | N#C[C@@H]1CCCN1C(=O)CNCCNc1cnc2ccccc2n1 [Compound 103, (S)-1-[2-(2-Quinoxalinylamino)ethylamino]acetyl-2-pyrrolidinecarbonitrile dihydrochloride] | –
3 | 392 nM | N#Cc1cccnc1NCc1ccc(CNCC(=O)N2CCC[C@H]2C#N)cc1 [Compound 201, (S)-1-{4-[(3-Cyano-2-pyridyl)aminomethyl]benzylamino}acetyl-2-pyrrolidinecarbonitrile oxalate] | –
4 | 27 nM | CC(C)(CNc1ccc(C(N)=O)cn1)NCC(=O)N1CCC[C@H]1C#N [Compound 221, (S)-1-[1-(5-Carbamoyl-2-pyridylamino)-2-methyl-2-propylamino]acetyl-2-pyrrolidinecarbonitrile] | –
5 | 124 nM | N#C[C@@H]1CCCN1C(=O)CNCCNC(=O)c1ccccc1 [Compound 403, (S)-1-(2-Benzamidoethylamino)acetyl-2-pyrrolidinecarbonitrile hydrochloride] | –
6 | 23 nM | CN(C)S(=O)(=O)c1ccc(NCC(C)(C)NCC(=O)N2CCC[C@H]2C#N)nc1 [Compound 501, (S)-1-{1-[5-(N,N-Dimethylaminosulfonyl)-2-pyridylamino]-2-methyl-2-propylamino}acetyl-2-pyrrolidinecarbonitrile] | Blood-sugar level, 0 minute (Wistar male rats [2]): 95 ± 7 mg/dL; Blood-sugar level, 30 minutes after glucose loading (Wistar male rats [2]): 182 ± 16 mg/dL
7 | 34 nM | CC(C)(CNc1ccc(S(=O)(=O)NCCO)cn1)NCC(=O)N1CCC[C@H]1C#N [Compound 524, (S)-1-{1-{5-[N-(2-Hydroxyethyl)aminosulfonyl]-2-pyridylamino}-2-methyl-2-propylamino}acetyl-2-pyrrolidinecarbonitrile] | –
8 | 53 nM | CC(C)(CNc1ccc(C#N)cc1)NCC(=O)N1CCC[C@H]1C#N [Compound 703, (S)-1-[1-(4-Cyanoanilino)-2-methyl-2-propylamino]acetyl-2-carbonitrile fumarate] | –

Further lines, the compound ahead of its results:

Row | SMILES | IC50 (DPP-IV) | other results
9 | CC1(NCC(=O)N2CCC[C@H]2C#N)CCN(c2ccc(C#N)cn2)CC1 [Compound 207, (S)-1-[1-(5-Cyano-2-pyridyl)-4-methyl-4-piperidylamino]acetyl-2-pyrrolidinecarbonitrile dihydrochloride] | 15 nM | –
10 | CC(C)(CNc1nccs1)NCC(=O)N1CCC[C@H]1C#N [Compound 226, (S)-1-[2-Methyl-1-(2-thiazolylamino)-2-propylamino]acetyl-2-pyrrolidinecarbonitrile fumarate] | 18 nM | –
11 | CC1(NCC(=O)N2CCC[C@H]2C#N)CCN(c2ncccn2)CC1 [Compound 233, (S)-1-[4-Methyl-1-(2-pyrimidinyl)-4-piperidylamino]acetyl-2-pyrrolidinecarbonitrile] | 19 nM | Blood-sugar level, 0 minute (Wistar male rats [2]): 93 ± 15 mg/dL; Blood-sugar level, 30 minutes after glucose loading (Wistar male rats [2]): 183 ± 8 mg/dL
12 | CC1(NCC(=O)N2CCC[C@H]2C#N)CCN(c2ccccn2)CC1 [Compound 238, (S)-1-[4-Methyl-1-(2-pyridyl)-4-piperidylamino]acetyl-2-pyrrolidinecarbonitrile dihydrochloride] | 11 nM | –
13 | N#C[C@@H]1CCCN1C(=O)CNC1CCN(S(=O)(=O)c2ccccc2)CC1 [Compound 407, (S)-1-(1-Benzenesulfonyl-4-piperidylamino)acetyl-2-carbonitrile methanesulfonate] | 20 nM | –
14 | CCN(C)S(=O)(=O)c1ccc(NCC(C)(C)NCC(=O)N2CCC[C@H]2C#N)nc1 [Compound 513, (S)-1-{1-[5-(N-Ethyl-N-methylaminosulfonyl)-2-pyridylamino]-2-methyl-2-propylamino}acetyl-2-pyrrolidinecarbonitrile] | – | Blood-sugar level, 0 minute (Wistar male rats [2]): 109 ± 6 mg/dL; Blood-sugar level, 30 minutes after glucose loading (Wistar male rats [2]): 252 ± 22 mg/dL
15 | CC1(NCC(=O)N2CCC[C@H]2C#N)CCN(c2ccc(S(=O)(=O)N3CC=CC3)cn2)CC1 [Compound 529, (S)-1-{4-Methyl-1-[5-(3-pyrrolin-1-ylsulfonyl)-2-pyridyl]-4-piperidylamino}acetyl-2-pyrrolidinecarbonitrile] | 26 nM | –
16 | N#Cc1ccc(NCC2(NC(=O)CN3CCC[C@H]3C#N)CCCC2)nc1 [Compound 602, 1-[(5-Cyanopyridin-2-ylamino)methyl]-1-[(S)-2-cyanopyrrolidinylacetylamino]cyclopentane fumarate] | 41 nM | –
